One data set concerns the target Large T antigen (Simian virus 40, UniProt P03070). It is filed as functional, Betapolyomavirus macacae.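 Further: Confirmatory-stage PubChem screen for compounds that inhibit SV40 T antigen.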
In data set [1] the target is FAD-linked sulfhydryl oxidase ALR (Homo sapiens, UniProt P55789). The data set can be described thus: inhibitors of human ALR sulfhydryl oxidase, dose response, biochemical, H2O2 detection, luminescence, cherry-pick (AID 493248).
Data set [2] addresses T1, Rac GTPase-activating protein 1 (Homo sapiens, UniProt Q9H0H5).
T1 sequence (Q9H0H5 whole entry): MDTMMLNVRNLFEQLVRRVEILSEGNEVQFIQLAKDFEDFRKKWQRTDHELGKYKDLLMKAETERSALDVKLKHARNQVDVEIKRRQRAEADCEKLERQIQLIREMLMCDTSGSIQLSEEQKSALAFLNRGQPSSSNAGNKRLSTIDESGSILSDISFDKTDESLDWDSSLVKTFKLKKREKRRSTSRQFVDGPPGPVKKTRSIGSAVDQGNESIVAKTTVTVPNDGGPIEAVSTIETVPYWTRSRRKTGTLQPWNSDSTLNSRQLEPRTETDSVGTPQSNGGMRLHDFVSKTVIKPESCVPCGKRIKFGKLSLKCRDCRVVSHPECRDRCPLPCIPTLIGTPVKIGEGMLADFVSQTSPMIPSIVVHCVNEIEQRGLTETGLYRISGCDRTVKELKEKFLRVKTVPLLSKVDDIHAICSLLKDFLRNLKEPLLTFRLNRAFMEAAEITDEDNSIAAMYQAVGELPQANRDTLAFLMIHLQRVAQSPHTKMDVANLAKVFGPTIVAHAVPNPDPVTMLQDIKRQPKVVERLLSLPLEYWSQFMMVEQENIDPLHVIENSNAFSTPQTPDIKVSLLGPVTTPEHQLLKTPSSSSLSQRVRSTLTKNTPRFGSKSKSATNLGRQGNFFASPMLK
Description: MgcRacGAP GTPase-activating activity inhibitors, confirmation, biochemical, ADP Hunter fluorescence, primary and confirmatory (AID 624330). It is filed as functional.

A short description of data set [3]: THP-1 cell cytotoxicity, dose response, cytotoxicity control for non-replicating M. tuberculosis project (AID 489025). It is filed as functional.
The nature of the next data set: cells. It is filed as functional.
Data set [4] has as its target Peroxisome proliferator-activated receptor gamma/Nuclear receptor coactivator 1 (Homo sapiens, UniProt P37231). The data set can be described thus: TR-FRET dose response biochemical High Throughput Screening assay for agonists of the steroid receptor coactivator 1 (SRC-1) recruitment by the peroxisome proliferator-activated receptor gamma (PPAR gamma): non-selective agonists. [Related pubchem assays (depositor defined):AID1300, AID1808, AID504735, AID631]. The format is protein assay. For orientation: TR-FRET usually uses a lanthanide donor and a delayed reading to cut background.

The target in data set [5] is Peroxisome proliferator-activated receptor gamma/Nuclear receptor coactivator 3 (Homo sapiens, UniProt P37231). Description: TR-FRET dose response biochemical High Throughput Screening assay for agonists of the steroid receptor coactivator 3 (SRC-3) recruitment by the peroxisome proliferator-activated receptor gamma (PPAR gamma): non-selective agonists. [Related pubchem assays: 1301 (Confirmation screen.), 1048 (Primary screen.)]. The format is functional.
Sequence of Peroxisome proliferator-activated receptor gamma/Nuclear receptor coactivator 3 (P37231 whole entry): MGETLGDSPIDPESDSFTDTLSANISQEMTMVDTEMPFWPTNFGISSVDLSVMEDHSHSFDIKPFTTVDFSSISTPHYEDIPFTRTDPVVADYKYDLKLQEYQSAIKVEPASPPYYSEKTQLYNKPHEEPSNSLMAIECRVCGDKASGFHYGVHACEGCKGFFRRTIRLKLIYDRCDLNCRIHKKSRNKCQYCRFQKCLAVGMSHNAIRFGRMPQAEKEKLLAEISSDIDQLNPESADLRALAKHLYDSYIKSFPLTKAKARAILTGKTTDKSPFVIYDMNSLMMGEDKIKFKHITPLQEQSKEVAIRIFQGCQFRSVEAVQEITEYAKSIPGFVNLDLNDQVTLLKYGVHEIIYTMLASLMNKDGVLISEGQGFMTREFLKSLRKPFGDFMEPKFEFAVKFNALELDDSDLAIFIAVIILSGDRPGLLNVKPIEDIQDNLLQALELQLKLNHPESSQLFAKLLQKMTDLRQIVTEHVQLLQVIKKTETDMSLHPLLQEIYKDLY
Sequence of Peroxisome proliferator-activated receptor gamma/Nuclear receptor coactivator 3 (Q9Y6Q9 whole entry, further chain): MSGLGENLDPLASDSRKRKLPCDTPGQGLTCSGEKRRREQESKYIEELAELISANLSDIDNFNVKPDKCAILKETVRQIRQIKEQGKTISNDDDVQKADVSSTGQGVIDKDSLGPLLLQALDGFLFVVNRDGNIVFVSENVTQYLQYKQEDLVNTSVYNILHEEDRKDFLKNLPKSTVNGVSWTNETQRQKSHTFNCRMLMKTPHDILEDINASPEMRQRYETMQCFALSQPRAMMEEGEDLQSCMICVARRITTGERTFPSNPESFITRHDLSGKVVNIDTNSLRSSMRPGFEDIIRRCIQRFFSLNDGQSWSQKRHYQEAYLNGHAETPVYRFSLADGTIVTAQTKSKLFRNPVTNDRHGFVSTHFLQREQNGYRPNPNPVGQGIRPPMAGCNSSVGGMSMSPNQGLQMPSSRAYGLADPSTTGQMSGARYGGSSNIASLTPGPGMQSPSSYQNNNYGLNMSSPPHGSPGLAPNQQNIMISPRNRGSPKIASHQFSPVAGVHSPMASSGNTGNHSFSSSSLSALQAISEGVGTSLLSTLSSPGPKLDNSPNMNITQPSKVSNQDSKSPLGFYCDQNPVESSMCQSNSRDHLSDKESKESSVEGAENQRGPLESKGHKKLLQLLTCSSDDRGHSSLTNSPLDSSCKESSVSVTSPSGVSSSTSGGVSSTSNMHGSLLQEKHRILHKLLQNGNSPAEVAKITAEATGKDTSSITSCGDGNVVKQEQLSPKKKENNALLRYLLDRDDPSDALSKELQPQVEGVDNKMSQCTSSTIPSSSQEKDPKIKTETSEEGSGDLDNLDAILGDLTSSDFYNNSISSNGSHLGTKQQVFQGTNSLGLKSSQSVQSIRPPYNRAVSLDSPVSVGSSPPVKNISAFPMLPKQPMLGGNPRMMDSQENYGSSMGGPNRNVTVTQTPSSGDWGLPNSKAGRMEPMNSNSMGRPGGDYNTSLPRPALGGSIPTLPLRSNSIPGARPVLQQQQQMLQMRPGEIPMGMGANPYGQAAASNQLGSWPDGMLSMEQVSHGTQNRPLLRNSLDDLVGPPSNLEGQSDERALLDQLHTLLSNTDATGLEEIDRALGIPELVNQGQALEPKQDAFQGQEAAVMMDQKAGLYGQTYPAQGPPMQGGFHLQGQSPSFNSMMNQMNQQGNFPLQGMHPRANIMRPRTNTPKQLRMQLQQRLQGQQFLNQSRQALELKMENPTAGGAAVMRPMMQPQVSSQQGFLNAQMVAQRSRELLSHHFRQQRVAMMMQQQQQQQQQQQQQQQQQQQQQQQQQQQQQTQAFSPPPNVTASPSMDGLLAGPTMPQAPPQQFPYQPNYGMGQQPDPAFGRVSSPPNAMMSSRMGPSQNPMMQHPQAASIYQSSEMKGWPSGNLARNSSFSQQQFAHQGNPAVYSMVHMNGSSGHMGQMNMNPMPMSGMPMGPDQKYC

Data set [6] deals with Peroxisome proliferator-activated receptor gamma/Nuclear receptor coactivator 2 (Homo sapiens, UniProt P37231). Description: TR-FRET dose response biochemical High Throughput Screening assay for agonists of the steroid receptor coactivator 2 (SRC-2) recruitment by the peroxisome proliferator-activated receptor gamma (PPAR gamma): non-selective agonists. [Related pubchem assays: 1297, 1032 ]. The format is functional.
Sequence of Peroxisome proliferator-activated receptor gamma/Nuclear receptor coactivator 2 (P37231 whole entry): as the sequence (P37231 whole entry) above
Sequence of Peroxisome proliferator-activated receptor gamma/Nuclear receptor coactivator 2 (Q15596 whole entry, further chain): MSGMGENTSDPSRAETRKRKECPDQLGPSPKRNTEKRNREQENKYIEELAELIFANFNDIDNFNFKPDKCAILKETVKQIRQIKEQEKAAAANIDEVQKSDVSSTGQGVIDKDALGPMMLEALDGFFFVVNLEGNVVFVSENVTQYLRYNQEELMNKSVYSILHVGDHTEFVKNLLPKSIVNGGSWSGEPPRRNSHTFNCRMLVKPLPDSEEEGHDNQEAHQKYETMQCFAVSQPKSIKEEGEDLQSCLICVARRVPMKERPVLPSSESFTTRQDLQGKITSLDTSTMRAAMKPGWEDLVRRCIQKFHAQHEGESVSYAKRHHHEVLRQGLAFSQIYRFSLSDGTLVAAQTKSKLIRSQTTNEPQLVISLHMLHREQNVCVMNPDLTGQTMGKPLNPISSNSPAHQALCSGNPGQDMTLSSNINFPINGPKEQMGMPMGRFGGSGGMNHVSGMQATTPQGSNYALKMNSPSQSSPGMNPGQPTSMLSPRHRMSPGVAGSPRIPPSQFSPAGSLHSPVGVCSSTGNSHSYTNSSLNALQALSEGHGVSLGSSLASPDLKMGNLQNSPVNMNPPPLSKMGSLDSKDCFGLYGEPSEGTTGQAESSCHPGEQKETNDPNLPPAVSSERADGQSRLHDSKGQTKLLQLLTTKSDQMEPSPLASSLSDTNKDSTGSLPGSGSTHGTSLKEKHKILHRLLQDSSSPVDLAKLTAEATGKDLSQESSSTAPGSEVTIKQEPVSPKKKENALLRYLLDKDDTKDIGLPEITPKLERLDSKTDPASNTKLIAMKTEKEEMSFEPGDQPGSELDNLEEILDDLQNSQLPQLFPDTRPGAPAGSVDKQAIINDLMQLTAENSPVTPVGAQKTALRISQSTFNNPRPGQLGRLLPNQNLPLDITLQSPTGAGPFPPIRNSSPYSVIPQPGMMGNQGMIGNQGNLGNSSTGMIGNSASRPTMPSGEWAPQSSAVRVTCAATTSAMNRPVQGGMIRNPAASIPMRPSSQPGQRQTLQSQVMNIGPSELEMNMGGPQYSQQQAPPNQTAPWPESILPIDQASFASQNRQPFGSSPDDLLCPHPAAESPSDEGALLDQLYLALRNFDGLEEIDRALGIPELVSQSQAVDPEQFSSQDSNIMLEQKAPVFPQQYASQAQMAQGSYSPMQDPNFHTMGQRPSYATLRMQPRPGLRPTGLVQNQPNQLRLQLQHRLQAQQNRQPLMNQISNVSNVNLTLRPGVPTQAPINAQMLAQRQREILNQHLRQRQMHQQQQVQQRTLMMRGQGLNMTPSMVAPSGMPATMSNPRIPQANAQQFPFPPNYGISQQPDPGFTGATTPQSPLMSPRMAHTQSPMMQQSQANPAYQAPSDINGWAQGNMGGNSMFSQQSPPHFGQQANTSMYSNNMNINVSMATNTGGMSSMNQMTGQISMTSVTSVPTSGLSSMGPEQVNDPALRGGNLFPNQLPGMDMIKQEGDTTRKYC

For the next data set, the target named is Beta-galactosidase (Escherichia coli, UniProt Q8VNN2). Description: beta-galactosidase enzyme inhibitors and activators, dose response, artefact control for CCR6 antagonist project, biochemical, E. coli enzyme, set 3 (AID 504712). It is filed as functional.
The next data set concerns the target T2, Cytochrome P450 1A2 (Homo sapiens, UniProt P05177).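 Further: PubChem cytochrome P450 panel assay, CYP1A2 panel member.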
T2 sequence (P05177 whole entry): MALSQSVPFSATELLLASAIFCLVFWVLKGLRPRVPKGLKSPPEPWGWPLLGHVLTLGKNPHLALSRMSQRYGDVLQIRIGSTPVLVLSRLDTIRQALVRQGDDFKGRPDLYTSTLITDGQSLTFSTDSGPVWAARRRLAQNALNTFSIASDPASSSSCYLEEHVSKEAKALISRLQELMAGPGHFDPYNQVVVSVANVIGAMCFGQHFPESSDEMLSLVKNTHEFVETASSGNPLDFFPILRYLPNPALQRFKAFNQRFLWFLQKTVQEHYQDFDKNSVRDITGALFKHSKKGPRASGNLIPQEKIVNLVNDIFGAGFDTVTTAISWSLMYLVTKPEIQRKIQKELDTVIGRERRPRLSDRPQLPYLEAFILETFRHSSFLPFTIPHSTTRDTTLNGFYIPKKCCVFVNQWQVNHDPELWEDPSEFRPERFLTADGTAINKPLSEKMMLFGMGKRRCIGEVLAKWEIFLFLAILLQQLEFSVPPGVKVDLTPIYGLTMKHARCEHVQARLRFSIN

Data set [7] addresses T3, Cytochrome P450 2C9 (Homo sapiens, UniProt P11712).
Data set [8] in a line: NIH-3T3 fibroblast cytotoxicity, dose response, cytotoxicity control, cell-based, fluorescence, Alamar Blue, secondary assay (AID 2327).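 Further: NIH-3T3 mouse fibroblasts cultured with fluconazole at 8 µg/mL.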 It is filed as functional. A general note: The colour change of resazurin is a common sign of viable cells or microbes.
Data set [9] can be described thus: C. albicans growth with fluconazole, confirmation, fluorescence, retest (AID 2467). It is filed as functional, cell-based.
The next data set addresses Cytochrome P450 2C19 (Homo sapiens, UniProt P33261). Description: Cytochrome panel assay with activity outcomes. Panel member name: p450-cyp2c19 Compounds with AC50 equal or less than 10 uM are considered active. It is filed as functional. As to conditions: read-out: AC50.
Data set [10] addresses T3, Cytochrome P450 2C9. This is another data set of the same source.
A further data set has as its target Cytochrome P450 3A4 (Homo sapiens, UniProt P08684).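 Further: CYP3A4 tested as one member of a cytochrome P450 panel screen.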
The target of data set [11] is Eukaryotic translation initiation factor 4E (Mus musculus, UniProt P63073). The data set can be described thus: eIF4E–eIF4G protein interaction inhibitors, dose response, biochemical, TR-FRET (AID 855).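 Further: potency for disrupting eIF4E binding to eIF4GI seen as loss of FRET.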 It is filed as functional.
The subject of data set [12] is Streptococcus sp. 'group A'. Description: growth inhibition of control SK(-) GAS strain, dose response, counter-screen for streptokinase expression inhibitor project, luminescence, kanamycin, BacTiterGlo, confirmation (AID 1900). It is filed as functional, organism-based. (In general: The purpose of a counterscreen is to sort out artefacts and off-target activity.)

The next data set concerns the target T4, Streptokinase A (Streptococcus pyogenes serotype M1, UniProt P10520).
T4 sequence (P10520 whole entry): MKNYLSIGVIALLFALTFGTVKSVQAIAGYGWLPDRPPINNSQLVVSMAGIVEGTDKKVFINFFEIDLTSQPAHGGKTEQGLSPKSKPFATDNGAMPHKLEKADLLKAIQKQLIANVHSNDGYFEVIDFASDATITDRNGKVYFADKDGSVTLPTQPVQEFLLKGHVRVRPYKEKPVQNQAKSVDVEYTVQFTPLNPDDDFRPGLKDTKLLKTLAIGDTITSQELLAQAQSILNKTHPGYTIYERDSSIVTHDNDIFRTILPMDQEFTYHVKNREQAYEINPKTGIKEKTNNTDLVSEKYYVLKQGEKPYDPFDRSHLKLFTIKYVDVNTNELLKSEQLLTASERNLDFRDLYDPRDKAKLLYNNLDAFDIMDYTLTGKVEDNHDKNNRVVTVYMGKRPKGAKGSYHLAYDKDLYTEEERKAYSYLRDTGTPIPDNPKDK
The data set can be described thus: S. pyogenes streptokinase expression inhibitors, potency, dose response, plasminogen activation absorbance, OD405 (AID 1914).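 Further: secreted streptokinase activity via plasminogen activation per viability signal from cell pellet.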 The format is functional, Streptococcus pyogenes M1 GAS.

For the next data set, the system named is Streptococcus. Description: Group A Streptococcus viability loss, dose response, counter-screen for streptokinase expression inhibitor project, luminescence, BacTiterGlo (AID 1915).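 Further: potency for reduction of bacterial viability or growth.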 The format is functional, organism-based.
In the next data set the target is Cytochrome P450 2D6 (Homo sapiens, UniProt P10635).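 Further: CYP2D6 member of a cytochrome P450 panel assay.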
The nature of data set [13]: Luminescence Cell-Based Dose Response HTS to Identify Activators of Luciferase Translation or Activity in H4 […] Cells. [Related pubchem assays: 1829 (Project Summary), 1814 (Primary HTS)]. It is filed as functional.
The next data set relates to H4. The data set can be described thus: Luminescence Cell-Based Dose Response HTS to Identify Activators of 5'UTR Stem-Loop Driven Prion Protein mRNA Translation in H4 Neuroglioblastoma Cells. [Related pubchem assays: 1829 (Project Summary), 1814 (Primary HTS)]. The format is functional. The following applies: Homo sapiens.
The next data set addresses Prothrombin (Homo sapiens, UniProt P00734). Description: Thrombin 1536 HTS Dose Response Confirmation. [Related pubchem assays: 1046 (Thrombin 1536 HTS; hits were confirmed in this assay)]. The format is functional.
The target of data set [14] is Induced myeloid leukemia cell differentiation protein Mcl-1 (Homo sapiens, UniProt Q07820). It is filed as functional.

SMILES strings stand for the structures. Activity calls are given as the source filed them.

As a reminder, the IC50 is the point on the concentration scale where inhibition reaches its midpoint. One may read the AC50 as the concentration giving half of the maximal activity seen. For orientation: CC50 means the concentration at which the toxic effect on the cells reaches its halfway point. Usually EC50 stands for the concentration giving half of the maximal effect.

T3 sequence (P11712 whole entry): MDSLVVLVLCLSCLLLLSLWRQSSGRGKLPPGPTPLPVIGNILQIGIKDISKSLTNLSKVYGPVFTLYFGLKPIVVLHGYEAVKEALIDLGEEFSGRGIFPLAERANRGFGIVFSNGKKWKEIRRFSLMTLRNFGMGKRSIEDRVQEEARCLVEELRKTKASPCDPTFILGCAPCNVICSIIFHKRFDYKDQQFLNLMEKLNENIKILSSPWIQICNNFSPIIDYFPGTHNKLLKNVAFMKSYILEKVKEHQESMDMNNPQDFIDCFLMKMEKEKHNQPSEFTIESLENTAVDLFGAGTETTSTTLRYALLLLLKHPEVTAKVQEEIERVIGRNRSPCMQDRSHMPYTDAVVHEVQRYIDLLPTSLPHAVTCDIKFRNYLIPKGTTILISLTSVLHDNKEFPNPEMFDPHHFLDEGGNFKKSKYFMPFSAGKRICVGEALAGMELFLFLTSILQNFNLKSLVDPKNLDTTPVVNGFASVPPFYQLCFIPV
Sequence of Cytochrome P450 3A4 (P08684 whole entry): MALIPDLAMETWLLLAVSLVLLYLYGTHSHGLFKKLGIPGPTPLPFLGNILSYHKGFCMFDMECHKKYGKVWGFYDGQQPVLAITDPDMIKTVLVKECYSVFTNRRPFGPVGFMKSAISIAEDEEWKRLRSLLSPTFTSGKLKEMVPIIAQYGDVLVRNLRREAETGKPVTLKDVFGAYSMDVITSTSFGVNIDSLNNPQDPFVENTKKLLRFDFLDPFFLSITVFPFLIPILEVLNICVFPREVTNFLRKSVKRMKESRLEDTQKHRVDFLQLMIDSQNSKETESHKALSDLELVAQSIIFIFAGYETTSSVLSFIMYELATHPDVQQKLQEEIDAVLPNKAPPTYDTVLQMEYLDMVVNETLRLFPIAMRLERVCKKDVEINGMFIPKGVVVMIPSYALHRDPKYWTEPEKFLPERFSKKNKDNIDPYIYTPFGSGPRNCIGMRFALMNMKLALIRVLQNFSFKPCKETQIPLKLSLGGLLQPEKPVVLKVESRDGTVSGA

As to `O=C1CS/C(=N\c2ccc(O)cc2)N1c1ccc(O)cc1`, the results for the IC50 (on Large T antigen; in data set [2]) were 11.4 µM (active) and 51.9 µM (active), respectively. The half-maximal activity concentration (AC50) in [1] was 3.26 µM (active).

On to `c1ccc(CNCCC(Cc2ccccc2)c2ccco2)cc1` (stereo not drawn), for which the CC50 in [3] is > 40 µM (active). Further, the IC50 in “cells” is > 50 µM (active).

With `CSc1cnn(-c2ccccc2)c(=O)c1SC`, the EC50 in data set [4] is 1.97 µM (active); in data set [5] it was > 79.4 µM (not active); in data set [6], 1.75 µM (active).

As to `CCOc1cccc(C(=O)NC(=S)Nc2cccc(C)c2)c1`, the IC50 on Beta-galactosidase is > 66.6 µM (inactive).

Turning to `O=C(NCc1ccc(Cl)cc1)c1ccc(Cl)cc1[N+](=O)[O-]`, the AC50 at Cytochrome P450 1A2 was 2.82 µM (inconclusive); on Cytochrome P450 2C9 [7] it was “inconclusive”.

As for `Cn1c(=O)n(CC#N)c2ccccc21`, the EC50 in [8] was > 160 µM (inconclusive); in data set [9], 4.1 µM (active). For the same compound, the concentration at half-maximal activity (AC50) is 12.6 µM (inconclusive) on Cytochrome P450 1A2 and “inconclusive” at Cytochrome P450 2C9 [7].

For `COc1ccc(N2CCN(CCNC(=O)C3CCN(S(=O)(=O)c4cccs4)CC3)CC2)cc1`, the half-maximal activity concentration (AC50) was 28.2 µM (inconclusive) on Cytochrome P450 2C19, 20 µM (inconclusive) on Cytochrome P450 2C9 [10] and “inconclusive” on Cytochrome P450 3A4.

For `Oc1n[nH]c(CSCc2ccccc2Cl)n1`, the IC50 in data set [11] was > 64 µM (inactive).

For `Cc1nn(-c2ccccc2)c(C)c1/C=N/NC(=O)c1cc(-c2ccc(Cl)s2)[nH]n1`, the EC50 in data set [12] was 10.8 µM (active); on Streptokinase A, > 150 µM (not active); with Streptococcus, 9.32 µM (active). Moreover, the results for the half-maximal activity concentration (AC50) on Cytochrome P450 2D6 and on Cytochrome P450 3A4 were 25.1 µM (inconclusive) and “inconclusive”, respectively.

Turning to `CCCCn1nnc(N(C(=O)c2cccs2)C(=O)c2cccs2)n1`, the half-maximal effective concentration (EC50) is 12.6 µM (active) in data set [13] and > 120 µM (not active) with H4. Further, the half-inhibitory concentration (IC50) at Prothrombin is 880 nM (active).

Regarding `Cc1ccc(CN(Cc2ccccc2)C(S)=NCC(=O)N2CCC3(CC2)OCCO3)o1`, in data set [11], the IC50 is 50 µM (inactive).

Consider `O=C(c1cccc(F)c1)N1CCC2(CC1)CCN(C(c1ccccc1)c1ccccc1)CC2`, for which the AC50 on Cytochrome P450 1A2 was 10 µM (inconclusive); at Cytochrome P450 2C9 [10] it was 39.8 µM (inconclusive); on Cytochrome P450 3A4, “inconclusive”.

With `CCCCN(CC)C(=O)CSc1cc(=O)n(C)c2ccccc12`, the figures for the EC50 in [4], in [5] and in data set [6] were > 79.4 µM (inactive), > 79.4 µM (not active) and > 79.4 µM (not active), respectively.

Turning to `N#Cc1cc(-c2ccccc2)nn1-c1ccccc1`, the IC50 was 1.44 µM (active) in data set [14] and > 64 µM (inactive) in data set [11].

`CCN(CCCNC(=O)CC(C(=O)N1CCc2ccccc21)n1ccnc1)c1ccccc1` (stereo not drawn): at Cytochrome P450 2C9 [7], the half-maximal activity concentration (AC50) entry is reported as “inconclusive”.

As for `O=c1c(-c2ccccc2)nc2cnc(Oc3ccccc3)nc2n1C1CC1`, the concentration at half-maximal activity (AC50) on Cytochrome P450 2C19 was 25.1 µM (inconclusive); on Cytochrome P450 3A4, “inconclusive”.

As for `CN(CCCNC(=O)CSc1cc(=O)n(C)c2cc(Cl)ccc12)Cc1ccccc1`, the values for the EC50 in data set [4], in data set [5] and in data set [6] were > 79.4 µM (inactive), > 79.4 µM (not active) and > 79.4 µM (not active), respectively.

On to `COc1ccc2c(c1OC)C(=O)N(c1ccc(O)cc1)C2`, for which the half-maximal inhibitory concentration (IC50) on Large T antigen was > 100 µM (active).

The values above are taken from ChEMBL document CHEMBL1201862, “PubChem BioAssay data set” (2004).
